Some results are limits rather than exact numbers.

The target of test [1] is PIK3CA (human) (UniProt P42336). Put plainly: Enzyme Assay.
Test [2] has as its target PIK3CD (Human) (UniProt O00329). Nature of the test: Enzyme Assay.
Another test has as its target PIK3CG (human) (UniProt P48736). Put plainly: Enzyme Assay.
Test [3] addresses PIK3CA (human) (UniProt P42336). Nature of the test: Cell-Based Assay. The note with it: rat-1.
Test [4] has as its target PIK3CD (Human) (UniProt O00329). Put plainly: Cell-Based Assay. Particulars: rat-1.

Sequence of PIK3CD (Human) (O00329 whole entry, looked up): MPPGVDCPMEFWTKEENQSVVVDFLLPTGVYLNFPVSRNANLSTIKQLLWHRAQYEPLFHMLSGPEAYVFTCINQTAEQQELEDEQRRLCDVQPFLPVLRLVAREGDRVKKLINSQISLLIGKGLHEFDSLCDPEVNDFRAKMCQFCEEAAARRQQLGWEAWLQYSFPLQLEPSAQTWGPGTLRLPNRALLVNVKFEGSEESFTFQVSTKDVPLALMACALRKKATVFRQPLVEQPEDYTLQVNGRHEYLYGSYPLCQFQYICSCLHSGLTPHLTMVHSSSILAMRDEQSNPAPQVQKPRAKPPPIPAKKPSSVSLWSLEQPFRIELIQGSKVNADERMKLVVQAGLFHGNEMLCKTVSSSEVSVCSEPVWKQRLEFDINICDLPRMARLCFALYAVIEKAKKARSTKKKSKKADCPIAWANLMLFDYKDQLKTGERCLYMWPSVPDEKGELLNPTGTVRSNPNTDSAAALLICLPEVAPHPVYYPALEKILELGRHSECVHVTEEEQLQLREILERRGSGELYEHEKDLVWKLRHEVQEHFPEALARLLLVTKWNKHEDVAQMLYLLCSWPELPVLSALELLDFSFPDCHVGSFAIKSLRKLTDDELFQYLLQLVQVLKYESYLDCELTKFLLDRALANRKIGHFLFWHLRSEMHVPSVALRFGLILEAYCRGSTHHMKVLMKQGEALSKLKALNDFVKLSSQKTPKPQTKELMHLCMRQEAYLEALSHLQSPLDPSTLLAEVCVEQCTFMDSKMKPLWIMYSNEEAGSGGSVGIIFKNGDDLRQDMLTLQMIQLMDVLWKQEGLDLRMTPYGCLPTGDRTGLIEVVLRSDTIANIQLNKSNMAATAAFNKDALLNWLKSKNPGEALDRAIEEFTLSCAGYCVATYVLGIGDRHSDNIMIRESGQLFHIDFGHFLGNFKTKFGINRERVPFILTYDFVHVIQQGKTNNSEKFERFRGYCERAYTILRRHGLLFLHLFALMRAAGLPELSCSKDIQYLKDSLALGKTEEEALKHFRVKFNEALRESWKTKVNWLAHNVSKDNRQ
Sequence of PIK3CG (human) (P48736 whole entry, looked up): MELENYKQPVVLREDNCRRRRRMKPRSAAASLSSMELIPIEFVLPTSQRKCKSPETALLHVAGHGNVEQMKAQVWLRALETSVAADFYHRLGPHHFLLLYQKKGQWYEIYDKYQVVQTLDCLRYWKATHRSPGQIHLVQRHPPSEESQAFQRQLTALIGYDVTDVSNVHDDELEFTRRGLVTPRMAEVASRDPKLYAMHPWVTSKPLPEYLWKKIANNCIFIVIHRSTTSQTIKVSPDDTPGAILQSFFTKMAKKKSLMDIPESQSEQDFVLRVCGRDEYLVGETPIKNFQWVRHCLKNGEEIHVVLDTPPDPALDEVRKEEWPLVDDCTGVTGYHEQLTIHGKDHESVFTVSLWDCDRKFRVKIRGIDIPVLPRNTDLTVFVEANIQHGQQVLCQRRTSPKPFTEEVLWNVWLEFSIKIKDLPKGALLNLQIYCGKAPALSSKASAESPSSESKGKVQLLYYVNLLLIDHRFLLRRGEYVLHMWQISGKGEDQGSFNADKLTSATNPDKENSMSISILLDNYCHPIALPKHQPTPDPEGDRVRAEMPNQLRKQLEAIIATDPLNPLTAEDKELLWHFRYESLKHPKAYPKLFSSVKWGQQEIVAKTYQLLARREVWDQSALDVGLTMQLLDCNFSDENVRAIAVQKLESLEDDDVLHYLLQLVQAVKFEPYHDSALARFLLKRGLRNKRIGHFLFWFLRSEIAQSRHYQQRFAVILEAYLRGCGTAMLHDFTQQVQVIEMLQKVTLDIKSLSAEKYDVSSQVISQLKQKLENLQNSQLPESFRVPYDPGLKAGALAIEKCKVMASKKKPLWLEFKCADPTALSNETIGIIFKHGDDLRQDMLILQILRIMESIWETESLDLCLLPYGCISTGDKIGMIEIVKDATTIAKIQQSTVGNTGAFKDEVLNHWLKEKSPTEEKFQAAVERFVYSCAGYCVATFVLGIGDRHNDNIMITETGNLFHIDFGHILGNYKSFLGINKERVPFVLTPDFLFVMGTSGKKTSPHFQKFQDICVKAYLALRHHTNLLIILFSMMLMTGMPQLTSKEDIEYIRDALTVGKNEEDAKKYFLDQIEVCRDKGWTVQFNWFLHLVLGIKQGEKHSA
Sequence of PIK3CA (human) (P42336 whole entry, looked up): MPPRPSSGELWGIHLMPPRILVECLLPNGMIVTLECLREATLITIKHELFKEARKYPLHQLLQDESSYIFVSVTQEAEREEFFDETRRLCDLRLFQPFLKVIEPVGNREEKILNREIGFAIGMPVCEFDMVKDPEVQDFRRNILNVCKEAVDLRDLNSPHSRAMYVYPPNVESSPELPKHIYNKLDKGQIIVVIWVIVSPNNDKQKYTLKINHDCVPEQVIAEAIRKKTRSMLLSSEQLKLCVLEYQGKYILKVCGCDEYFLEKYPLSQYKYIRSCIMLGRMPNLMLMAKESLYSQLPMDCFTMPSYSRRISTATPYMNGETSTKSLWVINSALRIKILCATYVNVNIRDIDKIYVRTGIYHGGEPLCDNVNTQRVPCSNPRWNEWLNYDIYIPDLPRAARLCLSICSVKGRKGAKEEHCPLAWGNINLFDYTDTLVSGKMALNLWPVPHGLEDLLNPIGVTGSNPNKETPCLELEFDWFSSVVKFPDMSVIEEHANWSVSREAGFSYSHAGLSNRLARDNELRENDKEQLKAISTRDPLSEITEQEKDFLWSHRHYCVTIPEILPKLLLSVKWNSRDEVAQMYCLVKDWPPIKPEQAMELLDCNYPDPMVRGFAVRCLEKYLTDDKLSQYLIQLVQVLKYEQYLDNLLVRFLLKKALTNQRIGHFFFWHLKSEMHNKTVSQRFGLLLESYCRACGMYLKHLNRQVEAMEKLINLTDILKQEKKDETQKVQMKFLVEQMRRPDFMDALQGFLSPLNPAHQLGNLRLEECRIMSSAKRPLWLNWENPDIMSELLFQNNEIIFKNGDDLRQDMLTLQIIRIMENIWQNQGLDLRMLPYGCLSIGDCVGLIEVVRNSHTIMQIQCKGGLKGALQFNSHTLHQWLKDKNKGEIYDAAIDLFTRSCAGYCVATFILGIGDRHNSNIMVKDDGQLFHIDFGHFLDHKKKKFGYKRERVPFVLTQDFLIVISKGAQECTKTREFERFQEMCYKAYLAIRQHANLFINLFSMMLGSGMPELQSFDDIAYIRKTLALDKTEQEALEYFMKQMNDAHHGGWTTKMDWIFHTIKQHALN

On to `Cc1ccc(-n2c([C@@H]3CSCN3c3ncnc4[nH]cnc34)nc3cccc(Cl)c3c2=O)s1`, for which the IC50 on PIK3CA (human) [1] is greater than 10000 nM; at PIK3CD (Human) [2], 140 nM; against PIK3CG (human), 820 nM; on PIK3CA (human) [3], greater than 10000 nM; against PIK3CD (Human) [4] it was 509 nM.
Turning to `O=c1c2c(Cl)cccc2nc([C@@H]2CCCN2c2ncnc3[nH]cnc23)n1N1CCOCC1`, the IC50 against PIK3CA (human) [1] was 2800 nM; against PIK3CD (Human) [2], 35 nM; at PIK3CG (human), 140 nM; against PIK3CA (human) [3], greater than 10000 nM; at PIK3CD (Human) [4], 80 nM.
The matching figures for `Cc1nc(N)nc(N2CCC[C@H]2c2nc3ccc(F)c(C)c3c(=O)n2-c2ccccc2)c1C#N`: 370 nM, 17 nM, 49 nM, 2090 nM and 42 nM.
For `O=c1c2c(F)cc(F)cc2nc([C@@H]2CCCN2c2ncnc3[nH]cnc23)n1-c1ccccc1`, in that order: greater than 10000 nM, 120 nM, greater than 10000 nM, greater than 10000 nM and 733 nM.
The matching figures for `COc1ccc(-n2c([C@@H]3CCCN3c3nc(N)nc4[nH]cnc34)nc3cccc(Cl)c3c2=O)cn1`: 8400 nM, 270 nM, 220 nM, greater than 10000 nM and 651 nM.
Regarding `COc1ccc(-n2c([C@@H]3CCCN3c3ncnc(N)c3C#N)nc3cccc(Cl)c3c2=O)cn1`, the IC50 against PIK3CA (human) [1] was greater than 10000 nM; on PIK3CD (Human) [2], 240 nM; against PIK3CG (human), 460 nM; against PIK3CA (human) [3], greater than 10000 nM; against PIK3CD (Human) [4], 152 nM.
For the molecule `Cc1nc(N)nc(N2CCC[C@H]2c2nc3cccc(OC(F)F)c3c(=O)n2-c2ccccc2)c1C#N`, the IC50 at PIK3CA (human) [1] was 340 nM; against PIK3CD (Human) [2], 9 nM; at PIK3CG (human) it was 70 nM; against PIK3CA (human) [3], greater than 10000 nM; against PIK3CD (Human) [4], 77 nM.
In the case of `COc1ccc(-n2c([C@@H]3CCCN3c3ncnc4[nH]cnc34)nc3cccc(Cl)c3c2=O)cn1`, the IC50 on PIK3CA (human) [1] is greater than 10000 nM; against PIK3CD (Human) [2] it was 660 nM; on PIK3CG (human), 1900 nM; on PIK3CA (human) [3], greater than 10000 nM; at PIK3CD (Human) [4], 1400 nM.
In the case of `Cc1nc(N)nc(N2CCC[C@H]2c2nc3cccc(C(F)(F)F)c3c(=O)n2-c2ccccc2)c1C#N`, the IC50 on PIK3CA (human) [1] amounted to 460 nM; on PIK3CD (Human) [2], 5 nM; on PIK3CG (human) it was 46 nM; against PIK3CA (human) [3], 210 nM; against PIK3CD (Human) [4], 37 nM.
In the case of `CN(C)n1c([C@@H]2CCCN2c2ncnc(N)c2C#N)nc2cccc(Cl)c2c1=O`, the IC50 against PIK3CA (human) [1] turned out to be 1100 nM; against PIK3CD (Human) [2], 21 nM; against PIK3CG (human), 190 nM; against PIK3CA (human) [3], 3530 nM; on PIK3CD (Human) [4], 26 nM.
Regarding `N#Cc1c(N)ncnc1N1CCC[C@H]1c1nc2ccc(F)c(F)c2c(=O)n1-c1ccccc1`, the IC50 at PIK3CA (human) [1] is 5550 nM; at PIK3CD (Human) [2], 90 nM; on PIK3CG (human), 2300 nM; on PIK3CA (human) [3], greater than 10000 nM; at PIK3CD (Human) [4], less than 3 nM.
For `O=c1c2c(Cl)cccc2nc([C@@H]2CCON2c2ncnc3scnc23)n1-c1ccccc1`, in that order: 1500 nM, 7 nM, 81 nM, 5990 nM and 57 nM.
The matching figures for `Nc1nc(N2CCC[C@H]2c2nc3cccc(Cl)c3c(=O)n2C2CCCCC2)c2nc[nH]c2n1`: 1780 nM, 24 nM, 96 nM, greater than 10000 nM and 149 nM.
On to `Cn1nccc1-n1c([C@@H]2CSCN2c2ncnc(N)c2C#N)nc2cccc(Cl)c2c1=O`, for which the IC50 on PIK3CA (human) [1] was greater than 10000 nM; against PIK3CD (Human) [2], 7200 nM; on PIK3CG (human), greater than 10000 nM; against PIK3CA (human) [3] it was greater than 10000 nM; against PIK3CD (Human) [4] it was greater than 10000 nM.
In the case of `Cc1nc(N)nc(N2CCC[C@H]2c2nc3cccc(Cl)c3c(=O)n2-c2ccccc2)c1C#N`, the IC50 came out at 72 nM on PIK3CA (human) [1]; 7 nM against PIK3CD (Human) [2]; 22 nM on PIK3CG (human); 1110 nM against PIK3CA (human) [3]; 5 nM at PIK3CD (Human) [4].
With `N#Cc1c(N)ncnc1N1CCC[C@H]1c1nc2cccc(OC(F)F)c2c(=O)n1-c1ccccc1`, the IC50 at PIK3CA (human) [1] was 2400 nM; against PIK3CD (Human) [2], 12 nM; at PIK3CG (human), 590 nM; against PIK3CA (human) [3] it was greater than 10000 nM; on PIK3CD (Human) [4] it was 166 nM.
For `Nc1nc(N2CCC[C@H]2c2nc3cc(F)cc(F)c3c(=O)n2-c2ccccc2)c2nc[nH]c2n1`, in that order: greater than 10000 nM, 150 nM, 4300 nM, greater than 10000 nM and 318 nM.
For the molecule `CN(C)n1c([C@@H]2CCCN2c2ncnc3[nH]cnc23)nc2cccc(Cl)c2c1=O`, the IC50 against PIK3CA (human) [1] was found to be 2000 nM; against PIK3CD (Human) [2], 89 nM; on PIK3CG (human) it was 320 nM; on PIK3CA (human) [3], 7680 nM; at PIK3CD (Human) [4], 109 nM.

A word on the IC50: it is the point on the concentration scale where inhibition reaches its midpoint.

Values taken from the Kinase Knowledgebase extract (Sharma et al. 2016).
